We go through two compounds from patent US8232408B2, “Crystalline 1-(3-fluorophenyl)-5-methyl-2-(1H)pyridone, the preparation methods, compositions and applications thereof” (Sunshine Lake Pharma Co., Ltd., priority 2008, dated 2012).

Converted amounts (≈) assume the structure as drawn. Read-outs that look alike come from different tables or passages of the source.

As a reminder, the solubility is the dissolved amount per volume that the medium holds.

Data set [1] concerns renal interstitial cell. Conditions: cited from earlier work.
A short description of data set [2]: Solubility per "Testing Method For Determining The Solubility", Chinese Pharmacopoeia 2005. The format is physicochemical. As to conditions: water, 25±1° C. From the text: (Testing method is according to the “Testing Method For Determining The Solubility” in The Chinese Pharmacopoeia 2005, the example section of the second part, the last line on the first page to the first line on the second.)
2. […] It can ensure that the drug can be steadily released after taking orally. The drug can mix with one's internal environment easily after release, which renders the steady absorption of the drug, and the achievement of a relatively stable bioavailability.

The nature of data set [3]: Solubility measurement: excess sample shaken in purified water for 48 hours, filtered supernatant measured. It is filed as physicochemical. As to conditions: thermodynamic from solid, shaken 48 hours. As for the experimental part:
Solubility measurement: excess crystalline FFD solid dispersion was put into a cone-shaped bottle with a stopper. After 100 ml purified water was added, the solution was shaken at a constant of 25° C. and 37° C. separately for 48 hours. The filtered supernatants were diluted and their concentrations were measured thrice for each sample.

On to `Cc1ccc(=O)n(-c2cccc(F)c2)c1` [FFD, 1-(3-fluorophenyl)-5-methyl-2-(1H)-pyridone], for which the effect on anti-fibrosis result in data set [1] was “good effect on anti-fibrosis”. For the same compound, the solubility in data set [2] (25 °C, thermodynamic from solid, read-out: solubility) is 1410 to 1490 µg/mL (≈ 6.94 to 7.33 mM).

Regarding `Cc1ccc(=O)n(-c2cccc(F)c2)c1` [crystalline FFD, 1-(3-fluorophenyl)-5-methyl-2-(1H)-pyridone], the solubility at 48 h in data set [3] (25° C.) fell in the range of 2440 to 2550 µg/mL (≈ 12 to 12.5 mM); in data set [3] (37° C.), 3140 to 3160 µg/mL. Further, the solubility in data set [2] is reported as 2.44˜2.55 mg/ml.
